Columns and labels:
VCaP cells = experiment: VCaP growth inhibition assay; format: cell-based; conditions: 30 pM R1881, 9 days, CTG
Experimental: VCaP cells (ATCC Cat #CRL-2876) are plated at 1×10^4 cells per well of a white plastic 96-well cluster plate (Thermo Scientific Nunc Cat #165306) in 100 uL phenol red-free DMEM (Gibco Cat #21063-029) media with 5% CSS (Omega Scientific Cat #FB-04). Cluster plates are returned to the incubator (37*C/5% CO2) for 72 hours prior to treatment. Just prior to treatment, 100 μL of phenol red-free DMEM/5% CSS and […] R1881 (Sigma Cat #R0908-10 mg) was added to each well of the cluster plates (Final R1881 concentration=30 pM). Compounds (200×) were added to each well in a volume of 1 uL, with serial dilutions (1:5) from 20 uM to 2 pM (final concentrations in well are 100 nM to 10 fM). Cluster plates are returned to the incubator for 9 days.
After the 9-day treatment period, media was removed from the cluster plates by inversion and 100 uL room temperature CTG reagent (Promega Cat #G7573) is added to each well. The cluster plates are placed on a shaker and incubated at room temperature for 20 minutes. Following this shaking/incubation, cluster plates are read on a luminometer (BMG ClarioStar). IC50 values are obtained by graphing the RLU data vs. compound concentration with nonlinear regression 4-parameter logistic curves (GraphPad Prism).

AR / CBP ternary complex = experiment: Ternary complex formation assay (sandwich ELISA, AR capture / CBP detection) in VCaP cell lysates; format: cell-based; conditions: 1.5 hours treatment, sandwich ELISA (AR capture, CBP or p300 detection)
Method in brief: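 VCaP cells (50K/well, 5% charcoal-stripped FBS, ≥3 days) treated with bifunctional compound for 1.5 h, then lysed 30 min at 4 °C. AR captured on anti-AR (AR 441) plates; bound CBP or p300 detected by rabbit mAb plus HRP secondary. QuantaRed chemifluorescence read at ex 570/em 585, immediately and at 5 and 15 min.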

| SMILES | IC50 (VCaP cells) | EC50 (AR / CBP ternary complex) |
| --- | --- | --- |
| CC(=O)N1CCc2c(c(N3CCCc4cc(-c5cnn(C)c5)c(C)cc43)nn2C2CCN(C3CCC4(CC3)CN(c3ncc(C(=O)NC5C(C)(C)C(Oc6ccc(C#N)c(Cl)c6C)C5(C)C)cn3)C4)CC2)C1 (stereo not shown) [Compound 473, 2-[7-[4-[5-acetyl-3-[7-methyl-6-(1-methylpyrazol-4-yl)-3,4-dihydro-2H-quinolin-1-yl]-6,7-dihydro-4H-pyrazolo[4,3-c]pyridin-1-yl]-1-piperidyl]-2-azaspiro[3.5]nonan-2-yl]-N-[3-(3-chloro-4-cyano-2-methyl-phenoxy)-2,2,4,4-tetramethyl-cyclobutyl]pyrimidine-5-carboxamide] | 0.1 to 1 nM | < 1 nM |
| COc1cc(OC2C(C)(C)C(NC(=O)c3ccc(N4CC[C@@H](N5CCC(n6nc(N7CCCc8cc(-c9cnn(C)c9)c(C(F)F)cc87)c7c6CCN(C(C)=O)C7)CC5)C4)cc3)C2(C)C)ccc1C#N (stereo partly drawn) [Compound 337, 4-[(3R)-3-[4-[5-acetyl-3-[7-(difluoromethyl)-6-(1-methylpyrazol-4-yl)-3,4-dihydro-2H-quinolin-1-yl]-6,7-dihydro-4H-pyrazolo[4,3-c]pyridin-1-yl]-1-piperidyl]pyrrolidin-1-yl]-N-[3-(4-cyano-3-methoxy-phenoxy)-2,2,4,4-tetramethyl-cyclobutyl]benzamide] | 0.1 to 1 nM | < 1 nM |
| COc1cc(OC2C(C)(C)C(NC(=O)c3ccc(N4CCC(N5CCC(n6nc(N7CCCc8cc(-c9cnn(C)c9)c(C(F)F)cc87)c7c6CCN(C(C)=O)C7)CC5)C(C)C4)cc3)C2(C)C)ccc1C#N (stereo not shown) [Compound 304, 4-[4-[4-[5-acetyl-3-[7-(difluoromethyl)-6-(1-methylpyrazol-4-yl)-3,4-dihydro-2H-quinolin-1-yl]-6,7-dihydro-4H-pyrazolo[4,3-c]pyridin-1-yl]-1-piperidyl]-3-methyl-1-piperidyl]-N-[3-(4-cyano-3-methoxy-phenoxy)-2,2,4,4-tetramethyl-cyclobutyl]benzamide] | 0.1 to 1 nM | < 1 nM |
| CC(=O)N1CCc2c(c(Nc3ccc(-c4cnn(C)c4)cc3F)nn2C2CN(CCC3CCN(c4ncc(C(=O)NC5C(C)(C)C(Oc6ccc(C#N)c(Cl)c6)C5(C)C)cn4)CC3)C2)C1 (stereo not shown) [Compound 3, 2-[4-[2-[3-[5-acetyl-3-[2-fluoro-4-(1-methylpyrazol-4-yl)anilino]-6,7-dihydro-4H-pyrazolo[4,3-c]pyridin-1-yl]azetidin-1-yl]ethyl]-1-piperidyl]-N-[3-(3-chloro-4-cyano-phenoxy)-2,2,4,4-tetramethyl-cyclobutyl]pyrimidine-5-carboxamide] | > 100 nM | > 100 nM |
| CC(=O)N1CCc2c(c(-c3cccc4cc(-c5cnn(CCC6CC7(C6)CN(c6ncc(C(=O)NC8C(C)(C)C(Oc9ccc(C#N)c(Cl)c9)C8(C)C)cn6)C7)c5)ncc34)nn2C)C1 (stereo not shown) [Compound 226, 2-[6-[2-[4-[8-(5-acetyl-1-methyl-6,7-dihydro-4H-pyrazolo[4,3-c]pyridin-3-yl)-3-isoquinolyl]pyrazol-1-yl]ethyl]-2-azaspiro[3.3]heptan-2-yl]-N-[3-(3-chloro-4-cyano-phenoxy)-2,2,4,4-tetramethyl-cyclobutyl]pyrimidine-5-carboxamide] | ≤ 0.1 nM | < 1 nM |
| CC(=O)N1CCc2c(c(-c3cccc4cc(-c5ccc(C(=O)NCCOCc6ncc(C(=O)NC7C(C)(C)C(Oc8ccc(C#N)c(Cl)c8)C7(C)C)cn6)nc5)ncc34)nn2C2CCOCC2)C1 (stereo not shown) [Compound 76, 2-[2-[[5-[8-(5-acetyl-1-tetrahydropyran-4-yl-6,7-dihydro-4H-pyrazolo[4,3-c]pyridin-3-yl)-3-isoquinolyl]pyridine-2-carbonyl]amino]ethoxymethyl]-N-[3-(3-chloro-4-cyano-phenoxy)-2,2,4,4-tetramethyl-cyclobutyl]pyrimidine-5-carboxamide] | ≤ 0.1 nM | < 1 nM |
| C[C@@H]1CC(=O)Nc2cccc(-c3ccc4c(c3)c(-c3cnn(C)c3)nn4CCN(C)c3ncc(C(=O)NC4C(C)(C)C(Oc5ccc(C#N)c(Cl)c5)C4(C)C)cn3)c2N1 (stereo partly drawn) [Compound 48, N-[3-(3-chloro-4-cyano-phenoxy)-2,2,4,4-tetramethyl-cyclobutyl]-2-[methyl-[2-[5-[(4R)-4-methyl-2-oxo-1,3,4,5-tetrahydro-1,5-benzodiazepin-6-yl]-3-(1-methylpyrazol-4-yl)indazol-1-yl]ethyl]amino]pyrimidine-5-carboxamide] | 1 to 100 nM | > 100 nM |
| CC(=O)N1CCc2c(c(N3CCCc4cc(-c5cnn(C)c5)c(C(F)F)cc43)nn2C2CCN(C(C)COC3CCN(c4ncc(C(=O)NC5C(C)(C)C(Oc6ccc(C#N)c(Cl)c6)C5(C)C)cn4)CC3)CC2)C1 (stereo not shown) [Compound 169, 2-[4-[2-[4-[5-acetyl-3-[7-(difluoromethyl)-6-(1-methylpyrazol-4-yl)-3,4-dihydro-2H-quinolin-1-yl]-6,7-dihydro-4H-pyrazolo[4,3-c]pyridin-1-yl]-1-piperidyl]propoxy]-1-piperidyl]-N-[3-(3-chloro-4-cyano-phenoxy)-2,2,4,4-tetramethyl-cyclobutyl]pyrimidine-5-carboxamide] | ≤ 0.1 nM | < 1 nM |
| COc1cc(OC2C(C)(C)C(NC(=O)c3ccc(N4CCC5(CC(N6CCC(n7nc(N8CCCc9cc(-c%10cnn(C)c%10)c(C(F)F)cc98)c8c7CCN(C(C)=O)C8)CC6)C5)C4)cc3)C2(C)C)ccc1C#N (stereo not shown) [Compound 347, 4-[2-[4-[5-acetyl-3-[7-(difluoromethyl)-6-(1-methylpyrazol-4-yl)-3,4-dihydro-2H-quinolin-1-yl]-6,7-dihydro-4H-pyrazolo[4,3-c]pyridin-1-yl]-1-piperidyl]-6-azaspiro[3.4]octan-6-yl]-N-[3-(4-cyano-3-methoxy-phenoxy)-2,2,4,4-tetramethyl-cyclobutyl]benzamide] | ≤ 0.1 nM | < 1 nM |
| CC(=O)N1CCc2c(c(N3CCCc4cc(-c5cnn(C)c5)c(C(F)F)cc43)nn2C2CCN(CCC3CCN(c4ncc(C(=O)NC5C(C)(C)C(Oc6ccc(C#N)c(Cl)c6)C5(C)C)cn4)CC3)CC2)C1 (stereo not shown) [Compound 174, 2-[4-[2-[4-[5-acetyl-3-[7-(difluoromethyl)-6-(1-methylpyrazol-4-yl)-3,4-dihydro-2H-quinolin-1-yl]-6,7-dihydro-4H-pyrazolo[4,3-c]pyridin-1-yl]-1-piperidyl]ethyl]-1-piperidyl]-N-[3-(3-chloro-4-cyano-phenoxy)-2,2,4,4-tetramethyl-cyclobutyl]pyrimidine-5-carboxamide] | ≤ 0.1 nM | < 1 nM |
| COc1cc(OC2C(C)(C)C(NC(=O)c3ccc(N4CCC(CCn5cc(-c6cc7cccc(-c8nn(C9CCOCC9)c9c8CN(C(C)=O)CC9)c7cn6)cn5)CC4)cc3)C2(C)C)ccc1C#N (stereo not shown) [Compound 244, 4-[4-[2-[4-[8-(5-acetyl-1-tetrahydropyran-4-yl-6,7-dihydro-4H-pyrazolo[4,3-c]pyridin-3-yl)-3-isoquinolyl]pyrazol-1-yl]ethyl]-1-piperidyl]-N-[3-(4-cyano-3-methoxy-phenoxy)-2,2,4,4-tetramethyl-cyclobutyl]benzamide] | 0.1 to 1 nM | 1 to 10 nM |
| COc1cc(OC2C(C)(C)C(NC(=O)c3ccc(N4CC(N5CCC6(CCC(n7nc(N8CCCc9cc(-c%10cnn(C)c%10)c(C(F)F)cc98)c8c7CCN(C(C)=O)C8)CC6)C5)C4)cc3)C2(C)C)ccc1C#N (stereo not shown) [Compound 401, 4-[3-[8-[5-acetyl-3-[7-(difluoromethyl)-6-(1-methylpyrazol-4-yl)-3,4-dihydro-2H-quinolin-1-yl]-6,7-dihydro-4H-pyrazolo[4,3-c]pyridin-1-yl]-2-azaspiro [4.5]decan-2-yl]azetidin-1-yl]-N-[3-(4-cyano-3-methoxy-phenoxy)-2,2,4,4-tetramethyl-cyclobutyl]benzamide] | 0.1 to 1 nM | < 1 nM |
| COc1cc(OC2C(C)(C)C(NC(=O)c3ccc(N4CCN(C5CCN(c6ccc(-c7cc8cccc(-c9nn(C%10CCOCC%10)c%10c9CN(C(C)=O)CC%10)c8cn7)cn6)CC5)CC4)cc3)C2(C)C)ccc1C#N (stereo not shown) [Compound 321, 4-[4-[1-[5-[8-(5-acetyl-1-tetrahydropyran-4-yl-6,7-dihydro-4H-pyrazolo[4,3-c]pyridin-3-yl)-3-isoquinolyl]-2-pyridyl]-4-piperidyl]piperazin-1-yl]-N-[3-(4-cyano-3-methoxy-phenoxy)-2,2,4,4-tetramethyl-cyclobutyl]benzamide] | ≤ 0.1 nM | < 1 nM |
| CC(=O)N1CCc2c(c(N3CCCc4cc(C#N)ccc43)nn2C2CC3(C2)CN(CC2CC4(C2)CN(c2ncc(C(=O)NC5C(C)(C)C(Oc6ccc(C#N)c(Cl)c6)C5(C)C)cn2)C4)C3)C1 (stereo not shown) [Compound 221, 2-[6-[[6-[5-acetyl-3-(6-cyano-3,4-dihydro-2H-quinolin-1-yl)-6,7-dihydro-4H-pyrazolo[4,3-c]pyridin-1-yl]-2-azaspiro[3.3]heptan-2-yl]methyl]-2-azaspiro[3.3]heptan-2-yl]-N-[3-(3-chloro-4-cyano-phenoxy)-2,2,4,4-tetramethyl-cyclobutyl]pyrimidine-5-carboxamide] | 1 to 100 nM | 1 to 10 nM |
